In ChEMBL document CHEMBL5634070, “Assessment of the structure-activity relationship and antileukemic activity of diacylpyramide compounds as human ClpP agonists” (Eur J Med Chem, 2023):

Columns and labels:
[1] = target: T1, ATP-dependent Clp protease proteolytic subunit, mitochondrial (Homo sapiens, UniProt Q16740); test: Agonist activity at human CLpP by measuring alpha-casein hydrolysis using alpha-casein as substrate preincubated for 10 mins followed by substrate addition and measured after 120 mins by Coomassie brilliant blue staining based SDS-PAGE assay
[2] = system: MOLM-13; test: Antiproliferative activity against human MOLM-13 cells assessed as inhibition of cell growth at 20 uM by CCK-8 assay relative to control; format: functional
[3] = target: T1, ATP-dependent Clp protease proteolytic subunit, mitochondrial; test: Agonist activity at human CLpP by measuring alpha-casein hydrolysis using alpha-casein as substrate by FITC staining based assay
[4] = target: T1, ATP-dependent Clp protease proteolytic subunit, mitochondrial; test: Binding affinity to human CLpP assessed as change in melting temperature by DSF assay; conditions: filed as agonist
[5] = system: NB-4; test: Inhibition of colony formation in human NB4 cells incubated for 14 days; format: functional, cell-based; conditions: time 14.0 day

T1 sequence (Q16740 whole entry): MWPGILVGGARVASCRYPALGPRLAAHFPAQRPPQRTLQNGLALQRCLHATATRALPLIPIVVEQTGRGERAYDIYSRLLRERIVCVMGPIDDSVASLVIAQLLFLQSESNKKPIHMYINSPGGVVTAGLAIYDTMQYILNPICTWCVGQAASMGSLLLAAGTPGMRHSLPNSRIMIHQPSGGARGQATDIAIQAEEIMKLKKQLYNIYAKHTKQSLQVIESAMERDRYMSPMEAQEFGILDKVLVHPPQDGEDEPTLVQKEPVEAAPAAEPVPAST

SMILES	EC50 [1] [µM]	inhibition at 20 µM [2] [%]	EC50 [3] [µM]	ΔTm [4] [°C]	inhibition [5]
CC[C@H](C)[C@H]1C(=O)N(Cc2cccc3ccccc23)C[C@@H]2N(C(=O)NCc3ccc(F)cc3Cl)CCC(=O)N12	8.7	99.8	–	–	–
CC[C@H](C)[C@H]1C(=O)N(Cc2cccc3ccccc23)C[C@@H]2N(C(=O)NCc3ccc(OC)c(OC)c3)CCC(=O)N12	> 25	35.2	–	–	–
CC[C@H](C)[C@H]1C(=O)N(Cc2cccc3ccccc23)C[C@@H]2N(C(=O)CCc3ccc(F)cc3)CCC(=O)N12	10.4	58.2	–	–	–
CC[C@H](C)[C@H]1C(=O)N(Cc2cccc3ccccc23)C[C@@H]2N(C(=O)NCc3ccc(F)c(Cl)c3)CCC(=O)N12	3.4	97.9	–	–	–
CC[C@H](C)[C@H]1C(=O)N(Cc2cccc3ccccc23)C[C@@H]2N(C(=O)NCc3c(F)c(F)c(F)c(F)c3F)CCC(=O)N12	15.9	99.9	–	–	–
CC[C@H](C)[C@H]1C(=O)N(Cc2cccc3ccccc23)C[C@@H]2N(C(=O)NCc3ccc(C(F)(F)F)cc3)CCC(=O)N12	7.7	95.3	–	–	–
CC[C@H](C)[C@H]1C(=O)N(Cc2cccc3ccccc23)C[C@@H]2N(C(=O)NCC3CCOCC3)CCC(=O)N12	> 25	6.3	–	–	–
CC[C@H](C)[C@H]1C(=O)N(Cc2cccc3ccccc23)C[C@@H]2N(C(=O)NCc3cc(F)c(F)c(F)c3)CCC(=O)N12	10.9	99.5	–	–	–
CC[C@H](C)[C@H]1C(=O)N(Cc2cccc3ccccc23)C[C@@H]2N(C(=O)NCC3CCCCC3)CCC(=O)N12	11.2	99.5	–	–	–
CC[C@H](C)[C@H]1C(=O)N(Cc2cccc3ccccc23)C[C@@H]2N(C(=O)CCc3ccccc3)CCC(=O)N12	14.1	92	–	–	–
O=C1[C@H](Cc2ccccc2)N2C(=O)CCN(C(=O)NCc3ccccc3)[C@H]2CN1Cc1cccc2ccccc12	14.4	34	–	–	–
CC[C@H](C)[C@H]1C(=O)N(Cc2cccc3ccccc23)C[C@@H]2N(C(=O)NCc3c(F)cc(Br)cc3F)CCC(=O)N12	> 25	99.1	–	–	–
CC[C@H](C)[C@H]1C(=O)N(Cc2cccc3ccccc23)C[C@@H]2N(C(=O)NCc3ccc(C(C)C)cc3)CCC(=O)N12	> 25	97.7	–	–	–
CC[C@H](C)[C@H]1C(=O)N(Cc2cccc3ccccc23)C[C@@H]2N(C(=O)NCc3ccc(F)c(F)c3)CCC(=O)N12	3.7	99.6	–	–	–
CC[C@H](C)[C@H]1C(=O)N(Cc2cccc3ccccc23)C[C@@H]2N(C(=O)NCc3ccc(F)c(OC)c3)CCC(=O)N12	5.4	98.1	–	–	–
CC(C)C[C@H]1C(=O)N(Cc2cccc3ccccc23)C[C@@H]2N(C(=O)NCc3ccccc3)CCC(=O)N21	7.2	82.5	–	–	–
CC[C@H](C)[C@H]1C(=O)N(Cc2cccc3ccccc23)C[C@@H]2N(C(=O)NC(C)(C)c3ccccc3)CCC(=O)N12	4.3	46.3	–	–	–
CC[C@H](C)[C@H]1C(=O)N(Cc2ccc(F)c3ccccc23)C[C@@H]2N(C(=O)NCc3ccc(Br)cc3)CCC(=O)N12	3.8	97.7	–	–	–
CC[C@H](C)[C@H]1C(=O)N(Cc2cccc3ccccc23)C[C@@H]2N(C(=O)NCc3ccc(Cl)cc3)CCC(=O)N12	2.7	98.3	–	–	–

SMILES	EC50 [1] [µM]	inhibition at 20 µM [2] [%]	EC50 [3] [µM]	ΔTm [4] [°C]	inhibition [5]
CC[C@H](C)[C@H]1C(=O)N(Cc2cccc3c2OCO3)C[C@@H]2N(C(=O)NCc3ccc(Br)cc3)CCC(=O)N12	14.9	44.4	–	–	–
CC[C@H](C)[C@H]1C(=O)N(Cc2cccc3ccccc23)C[C@@H]2N(C(=O)NCc3ccc(C)cc3)CCC(=O)N12	3.3	99.4	–	–	–
CSCC[C@H]1C(=O)N(Cc2cccc3ccccc23)C[C@@H]2N(C(=O)NCc3ccccc3)CCC(=O)N21	15.9	24.4	–	–	–
CC[C@H](C)[C@H]1C(=O)N(Cc2cccc3ccccc23)C[C@@H]2N(C(=O)NCc3ccccc3)CCC(=O)N12	7.8	97.9	–	–	–
CC[C@H](C)[C@H]1C(=O)N(Cc2cccc3ccccc23)C[C@@H]2N(C(=O)NCc3ccc(OC)cc3)CCC(=O)N12	3.4	99.4	–	–	–
O=C1[C@H](Cc2ccc(O)cc2)N2C(=O)CCN(C(=O)NCc3ccccc3)[C@H]2CN1Cc1cccc2ccccc12	7.1	86.9	–	–	–
CC[C@H](C)[C@H]1C(=O)N(Cc2cccc3ccccc23)C[C@@H]2N(C(=O)NCc3ccc(I)cc3)CCC(=O)N12	5.2	97.5	–	–	–
CC[C@H](C)[C@H]1C(=O)N(Cc2cccc3ccccc23)C[C@@H]2N(C(=O)NCc3ccc(F)c(Br)c3)CCC(=O)N12	3.6	97.6	–	–	–
CC[C@H](C)[C@H]1C(=O)N(Cc2cccc3ccccc23)C[C@@H]2N(C(=O)NCc3ccc4ccccc4c3)CCC(=O)N12	10.6	99.3	–	–	–
CC[C@H](C)[C@H]1C(=O)N(Cc2cccc3ccccc23)C[C@@H]2N(C(=O)NCc3ccc(Br)cc3F)CCC(=O)N12	5.6	98	–	–	–
NC(=O)C[C@H]1C(=O)N(Cc2cccc3ccccc23)C[C@@H]2N(C(=O)NCc3ccccc3)CCC(=O)N21	> 25	5.5	–	–	–
CC[C@H](C)[C@H]1C(=O)N(Cc2ccc3ccccc3c2)C[C@@H]2N(C(=O)NCc3ccc(Br)cc3)CCC(=O)N12	> 25	13.2	–	–	–
CCCCNC(=O)N1CCC(=O)N2[C@@H]([C@@H](C)CC)C(=O)N(Cc3cccc4ccccc34)C[C@H]12	4.6	23.6	–	–	–
O=C1[C@H](Cc2cnc[nH]2)N2C(=O)CCN(C(=O)NCc3ccccc3)[C@H]2CN1Cc1cccc2ccccc12	22.8	13.4	–	–	–
CC[C@H](C)[C@H]1C(=O)N(Cc2cccc3ccccc23)C[C@@H]2N(C(=O)NCc3ccc(Br)cc3)CCC(=O)N12	2.8	99.7	1.19	16.4	Dose-Dependent Effect
CC[C@H](C)[C@H]1C(=O)N(Cc2cccc3ccccc23)C[C@@H]2N(C(=O)NCc3ccc4c(c3)OCO4)CCC(=O)N12	5.8	78.6	–	–	–
CC[C@H](C)[C@H]1C(=O)N(Cc2cccc3ccccc23)C[C@@H]2N(C(=O)NCc3cc(F)c(Br)c(F)c3)CCC(=O)N12	3.6	99.1	–	–	–
CC[C@H](C)[C@H]1C(=O)N(Cc2cccc3ccccc23)C[C@@H]2N(C(=O)NCc3cc(Br)cc(Br)c3)CCC(=O)N12	> 25	98.4	–	–	–
